Reference: ChEMBL document CHEMBL1126005 (Bioorg Med Chem Lett, 1991)

Columns and labels:
[1] = biological target: Adenosine A2 receptor (Rattus norvegicus, UniProt P29276+P30543)
[2] = biological target: T1, Adenosine receptor A1 (Rattus norvegicus, UniProt P25099); assay: biochemical
T1 sequence (P25099 whole entry): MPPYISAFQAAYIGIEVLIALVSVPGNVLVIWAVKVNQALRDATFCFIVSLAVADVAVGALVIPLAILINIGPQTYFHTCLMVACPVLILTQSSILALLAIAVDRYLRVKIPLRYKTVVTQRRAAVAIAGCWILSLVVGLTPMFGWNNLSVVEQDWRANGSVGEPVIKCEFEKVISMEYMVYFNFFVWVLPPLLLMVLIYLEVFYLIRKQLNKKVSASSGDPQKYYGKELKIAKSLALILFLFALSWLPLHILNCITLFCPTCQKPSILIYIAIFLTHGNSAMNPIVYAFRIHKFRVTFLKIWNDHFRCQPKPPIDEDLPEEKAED

Compound | Ki [1] [nM] | Ki [2] [nM]
OC[C@H]1OC(n2cnc3c(NC4CCCCC4)nc(O)nc32)[C@H](O)[C@@H]1O (some centres undefined) | 15000 | 40
OC[C@H]1OC(n2cnc3c(NC4CCC4)nc(O)nc32)[C@H](O)[C@@H]1O (some centres undefined) | 15000 | 55
OC[C@H]1OC(n2cnc3c(NC4CCCC4)nc(I)nc32)[C@H](O)[C@@H]1O (some centres undefined) | 40000 | 20
OC[C@H]1OC(n2cnc3c(NC4CCCCCC4)nc(O)nc32)[C@H](O)[C@@H]1O (some centres undefined) | 6000 | 70
OC[C@H]1OC(n2cnc3c(NC4CCC5CCCCC5C4)nc(O)nc32)[C@H](O)[C@@H]1O (some centres undefined) | 140000 | 30000

Further compounds by falling Ki [2], results first:

Ki [1] [nM] | Ki [2] [nM] | Compound
80000 | 35 | OC[C@H]1OC(n2cnc3c(NC4CC5CCC4C5)nc(O)nc32)[C@H](O)[C@@H]1O (some centres undefined)
7500 | 19 | OC[C@H]1OC(n2cnc3c(NC4CCCC4)nc(O)nc32)[C@H](O)[C@@H]1O (some centres undefined)
